From publication PMC11934079, “Structural and Mechanistic Characterization of the Flavin-Dependent Monooxygenase and Oxidase Involved in Sorbicillinoid Biosynthesis” (ACS Chemical Biology, 2025)
Values belong to the compound of their own block, whether it stands above or below them.

Experiments:
[1] = molecular target: T1, SorC (Penicillium rubens, UniProt B6HN76); test: enzyme kinetics; assay type: biochemical; settings: coenzyme; hydroxylation of sorbicillin
T1 construct: monomer

[2] = molecular target: T2, SorC (Penicillium rubens, UniProt B6HN76, R201A); test: microscale thermophoresis; assay type: binding
T2 construct: monomer

[3] = molecular target: T3, SorD (Penicillium rubens, UniProt B6HNK6); test: microscale thermophoresis; assay type: binding
T3 construct: C-terminal His6 tag, endogenous signal peptide (residues 5-22 partly seen in structure), secreted from Aspergillus niger; N-glycosylated; ~50 kDa theoretical, 61 kDa measured; monomer; FAD covalent at His78

[4] = molecular target: T1, SorC; test: microscale thermophoresis; assay type: binding
[5] = molecular target: T1, SorC; test: X-ray crystal structure, […] Å; assay type: binding; settings: flavin out conformation; without sorbicillin
[6] = molecular target: T3, SorD; test: X-ray crystal structure, […] Å; assay type: binding; settings: covalent; attached to His78; without sorbicillin

T1 sequence (B6HN76 whole entry): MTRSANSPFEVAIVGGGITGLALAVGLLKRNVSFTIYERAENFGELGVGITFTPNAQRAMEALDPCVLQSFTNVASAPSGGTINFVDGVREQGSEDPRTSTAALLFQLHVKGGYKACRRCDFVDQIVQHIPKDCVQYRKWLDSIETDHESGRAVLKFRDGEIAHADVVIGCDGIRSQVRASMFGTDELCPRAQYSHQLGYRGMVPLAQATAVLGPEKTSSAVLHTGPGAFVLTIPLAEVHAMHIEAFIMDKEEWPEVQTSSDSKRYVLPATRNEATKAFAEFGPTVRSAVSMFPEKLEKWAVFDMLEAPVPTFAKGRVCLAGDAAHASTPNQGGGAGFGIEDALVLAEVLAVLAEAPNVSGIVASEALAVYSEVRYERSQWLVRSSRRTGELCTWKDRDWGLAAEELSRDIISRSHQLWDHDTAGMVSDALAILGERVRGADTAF
T3 sequence (B6HNK6 whole entry, the tested form may be a part): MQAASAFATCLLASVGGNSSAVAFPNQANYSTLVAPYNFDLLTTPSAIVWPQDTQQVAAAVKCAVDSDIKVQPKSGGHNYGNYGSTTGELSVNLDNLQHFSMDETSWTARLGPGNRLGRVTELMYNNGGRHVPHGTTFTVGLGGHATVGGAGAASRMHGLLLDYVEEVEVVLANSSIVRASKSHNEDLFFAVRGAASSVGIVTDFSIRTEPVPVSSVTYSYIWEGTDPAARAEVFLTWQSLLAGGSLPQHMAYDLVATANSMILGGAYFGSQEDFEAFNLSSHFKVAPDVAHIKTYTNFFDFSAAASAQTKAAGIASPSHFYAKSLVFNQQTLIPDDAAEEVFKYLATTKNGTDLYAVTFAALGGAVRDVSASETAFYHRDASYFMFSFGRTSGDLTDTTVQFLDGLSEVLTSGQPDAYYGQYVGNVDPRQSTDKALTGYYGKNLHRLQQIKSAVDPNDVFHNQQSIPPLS
T2 sequence (B6HN76 whole entry R201A): as the sequence (B6HN76 whole entry) above, with R201A counted along it

SMILES: NC(=O)C1=CN([C@@H]2O[C@H](COP(=O)(O)OP(=O)(O)OC[C@H]3O[C@@H](n4cnc5c(N)ncnc54)[C@H](OP(=O)(O)O)[C@@H]3O)[C@@H](O)[C@H]2O)C=CC1 [NADPH]
- catalytic efficiency [1]: both NADH and NADPH were accepted as coenzymes

SMILES: NC(=O)C1=CN([C@@H]2O[C@H](COP(=O)(O)OP(=O)(O)OC[C@H]3O[C@@H](n4cnc5c(N)ncnc54)[C@H](O)[C@@H]3O)[C@@H](O)[C@H]2O)C=CC1 [NADH]
- catalytic efficiency [1]: both NADH and NADPH were accepted as coenzymes, with NADH having a higher overall catalytic efficiency

- Kd [2]: 12.6 ± 9.7 µM
- Kd [3]: 1.2 ± 1.6 µM
- Kd [4]: 0.94 ± 0.093 µM
SMILES: C/C=C/C=C/C(=O)c1cc(C)c(O)c(C)c1O [compound 1, sorbicillin]

SMILES: Cc1cc2nc3c(=O)[nH]c(=O)nc-3n(C[C@H](O)[C@H](O)[C@H](O)COP(=O)(O)OP(=O)(O)OC[C@H]3O[C@@H](n4cnc5c(N)ncnc54)[C@H](O)[C@@H]3O)c2cc1C [FAD]
- X-ray crystal structure, 1.4 Å [5]: SorC without sorbicillin shows that the oxidized flavin is already in the out conformation
- X-ray crystal structure, 1.55 Å [6]: SorD, where the FAD is covalently attached to residue His78
